Reference: patent US8575091B1, “Amylin analogues and pharmaceutical compositions thereof” (Novo Nordisk A/S, priority 2012, dated 2013)
Like-named read-outs stand apart in the source and are kept apart here. Numbered stars: 1 amine (or outer) side, 2 acyl side, 3 side chain; on linkers, the order of the positions; unused ones are H or OH. Bridge positions count the residues as written; N and C are the ends. Side chains are listed from the residue outwards. Peptide text beside a SMILES is read from it. * marks the point of attachment. C20 diacid = O=C(O)CCCCCCCCCCCCCCCCCCC(=O)*; γGlu = O=C(O)[C@H](CCC(=O)[*:2])N[*:1]

Assays:
[1] = target: T1, human amylin receptor (amylin 3(a) receptor: human calcitonin receptor + RAMP-3) (Homo sapiens, UniProt O60896+P30988); test: Assay (II)a functional assay, human amylin receptor (CRE luciferase, BHK cells); assay type: cell-based; conditions: for EC50: functional assay, human amylin receptor, read-out: hAmylin-R funct. EC50
T1 construct: expressed in transfected cells
T1 sequence (P30988 25-474): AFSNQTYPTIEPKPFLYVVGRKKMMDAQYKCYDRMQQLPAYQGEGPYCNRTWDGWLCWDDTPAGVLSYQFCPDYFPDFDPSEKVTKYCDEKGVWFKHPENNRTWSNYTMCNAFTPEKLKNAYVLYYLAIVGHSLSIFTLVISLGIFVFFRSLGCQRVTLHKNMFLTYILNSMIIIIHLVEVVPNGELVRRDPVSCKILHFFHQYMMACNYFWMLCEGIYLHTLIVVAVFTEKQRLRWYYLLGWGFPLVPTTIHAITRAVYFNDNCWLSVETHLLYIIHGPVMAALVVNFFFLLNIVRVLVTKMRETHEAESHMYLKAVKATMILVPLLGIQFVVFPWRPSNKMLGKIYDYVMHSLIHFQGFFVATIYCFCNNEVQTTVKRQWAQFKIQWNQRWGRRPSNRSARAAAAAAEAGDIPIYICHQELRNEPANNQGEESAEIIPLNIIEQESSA
T1 sequence (O60896 24-148 partner): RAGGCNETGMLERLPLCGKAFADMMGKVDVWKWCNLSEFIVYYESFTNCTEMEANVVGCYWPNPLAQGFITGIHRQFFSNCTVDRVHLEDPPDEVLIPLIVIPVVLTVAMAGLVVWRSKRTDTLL

[2] = target: T2, human calcitonin receptor (Homo sapiens, UniProt P30988); test: Assay (II)a functional assay, human calcitonin receptor (CRE luciferase, BHK cells);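 also: luminescence from a CRE-driven luciferase reporter, read by single photon counting after cells were exposed to test samples for 3 h at 37 °C under 5% CO2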; assay type: cell-based; conditions: read-out: hCTR funct. EC50
T2 construct: expressed in transfected cells
T2 sequence (P30988 25-474): T1 sequence (P30988 25-474)

human amylin receptor = target: T3, human amylin receptor (Homo sapiens, UniProt O60896+P30988); test: Assay (V) binding to the human amylin receptor (SPA, 125I-rat amylin); conditions: for IC50: read-out: hAmylin-R bind IC50; for Ratio hCT/hAmylin binding: human binding ratio, included for comparison
T3 construct: expressed in transfected cells
T3 sequence (P30988 25-474): T1 sequence (P30988 25-474)
T3 sequence (O60896 24-148 partner): T1 sequence (O60896 24-148 partner)
Method in brief: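 SPA competition binding on membranes from Amylin 3(a)/CRE-luc cells, 35 ng/μL membranes with 0.05 mg/well beads. Buffer 50 mM Hepes pH 7.4, 1 mM CaCl2, 5 mM MgCl2, 0.1% OA, 0.02% Tween20. IC50 from one-site competition fit as affinity measure.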

rat amylin receptor = target: T4, rat amylin receptor (Rattus norvegicus, UniProt P32214+Q9JJ73); test: Assay (VI) binding to the rat amylin receptor; conditions: rCTR bind IC50 divided by rAmylin-R bind IC50
T4 construct: expressed in transfected cells; host or cells: BHK tk'ts 13 (transient, FuGENE 6), membranes
T4 sequence (P32214 25-479 isoform P32214-2 limits assumed): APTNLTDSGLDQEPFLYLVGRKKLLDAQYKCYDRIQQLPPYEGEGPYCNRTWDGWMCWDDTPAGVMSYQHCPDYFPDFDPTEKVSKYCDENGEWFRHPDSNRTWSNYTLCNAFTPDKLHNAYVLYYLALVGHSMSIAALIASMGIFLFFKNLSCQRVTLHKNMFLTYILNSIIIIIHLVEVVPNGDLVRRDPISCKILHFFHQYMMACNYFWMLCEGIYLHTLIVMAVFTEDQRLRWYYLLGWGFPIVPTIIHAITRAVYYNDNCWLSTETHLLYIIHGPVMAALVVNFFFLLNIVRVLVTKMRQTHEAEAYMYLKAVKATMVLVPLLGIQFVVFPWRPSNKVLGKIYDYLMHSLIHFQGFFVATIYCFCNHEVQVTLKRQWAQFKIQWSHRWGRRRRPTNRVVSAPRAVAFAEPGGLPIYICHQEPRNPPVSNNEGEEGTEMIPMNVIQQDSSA
T4 sequence (Q9JJ73 23-147 partner): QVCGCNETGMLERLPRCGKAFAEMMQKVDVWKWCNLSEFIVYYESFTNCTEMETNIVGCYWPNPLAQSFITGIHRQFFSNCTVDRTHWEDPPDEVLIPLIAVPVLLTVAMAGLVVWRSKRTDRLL
Method in brief: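 Binding as in the human amylin receptor binding assay, but with membranes from BHK tk'ts 13 cells transiently co-transfected with rat calcitonin receptor and rat RAMP 3 […]. Membranes were prepared from cells harvested about 48 hours after transfection.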

[3] = target: T2, human calcitonin receptor; test: Assay (VII) binding to the human calcitonin receptor (SPA, 125I-Calcitonin); conditions: read-out: hCTR bind IC50;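 also: cell membranes coupled to SPA beads, competitive displacement read by scintillation counting, IC50 derived from a one-site competition fit as a measure of receptor affinity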
[4] = Assay (IV) determination of solubility; assay type: physicochemical
Procedure: Assay (IV)—Determination of Solubility
The polypeptide was dissolved in water at ˜500 nmol/ml and mixed 1:1 with a series of buffers (100 mM glycylglycine pH 3.0, 100 mM glycylglycine pH 4.0, 100 mM glycylglycine pH 5.0, 100 mM bistrispropane pH 6.0, 100 mM bistrispropane pH 6.5, 100 mM bistrispropane pH 7.0, 100 mM bistrispropane pH 7.5, 100 mM bistrispropane pH 8.0). After 18 hours at room temperature the samples were centrifuged and the polypeptide concentration determined by UPLC.

[5] = Table 6, human functional selectivity (hCTR EC50 / hAmylin-R EC50)
[6] = human amylin receptor membranes, SPA

Row | Compound | Ratio hCT/hAmylin funct. [1, 5] | EC50 [1] | Ratio hCT/hAmylin funct. ([1]; hCTR funct. EC50 divided by hAmylin-R funct. EC50) | EC50 [2] | IC50 (human amylin receptor; binding to human amylin receptor) | IC50 (human amylin receptor; [6]) | Ratio hCT/hAmylin binding (human amylin receptor) | Ratio rCT/rAmylin binding (rat amylin receptor) | IC50 [3] | Solubility pH 6.5 Concentration (μM) ([4]; pH 6.5, 18 hours room temperature) | Solubility pH 7.0 Concentration (μM) ([4]; pH 7.0, 18 hours room temperature) | Solubility pH 7.5 Concentration (μM) ([4]; pH 7.5, 18 hours room temperature) | Solubility pH 8.0 Concentration (μM) ([4]; pH 8.0, 18 hours room temperature)
1 | CC(C)C[C@H](NC(=O)[C@H](CCCNC(=N)N)NC(=O)[C@H](CCC(N)=O)NC(=O)[C@@H](NC(=O)[C@H](C)NC(=O)[C@@H]1CSSC[C@H](NC(=O)[C@H](CCCCN)NC(=O)CC[C@H](NC(=O)CCCCCCCCCCCCCCCCCCC(=O)O)C(=O)O)C(=O)N[C@@H](CC(N)=O)C(=O)N[C@@H]([C@@H](C)O)C(=O)N[C@@H](C)C(=O)N[C@@H]([C@@H](C)O)C(=O)N1)[C@@H](C)O)C(=O)N[C@@H](C)C(=O)N[C@@H](CCC(=O)O)C(=O)N[C@@H](Cc1ccccc1)C(=O)N[C@@H](CC(C)C)C(=O)N[C@@H](CCCNC(=N)N)C(=O)N[C@@H](Cc1c[nH]cn1)C(=O)N[C@@H](CO)C(=O)N[C@@H](CO)C(=O)N1CCC[C@H]1C(=O)N[C@@H](CC(N)=O)C(=O)N[C@@H](Cc1ccccc1)C(=O)NCC(=O)N[C@@H](C)C(=O)N1CCC[C@H]1C(=O)N[C@@H](CC(C)C)C(=O)N[C@@H](CO)C(=O)N[C@@H](CO)C(=O)N[C@H](C(=O)N[C@@H](CC(N)=O)C(=O)N[C@H](C(=O)NCC(=O)N[C@@H](CO)C(=O)N[C@@H](CC(N)=O)C(=O)N[C@H](C(=O)N1CCC[C@H]1C(N)=O)[C@@H](C)O)C(C)C)[C@@H](C)O [Example 5] ({C20 diacid-γGlu}-KCNTATCATQRLAEFLRHSSPNFGAPLSSTNVGSNTP-NH2; disulfide 2-7) | 1.0 | 0.162 nM | 1.0 | 0.16 nM | 0.374 nM | 0.374 nM | 1.4 | 3.6 | 0.537 nM | – | – | – | –
2 | CC[C@H](C)[C@H](NC(=O)[C@H](C)NC(=O)CNC(=O)[C@H](Cc1ccccc1)NC(=O)[C@H](CC(N)=O)NC(=O)[C@@H]1CCCN1C(=O)[C@H](CO)NC(=O)[C@H](CO)NC(=O)[C@H](Cc1c[nH]cn1)NC(=O)[C@H](CCCNC(=N)N)NC(=O)[C@H](CC(C)C)NC(=O)[C@H](Cc1ccccc1)NC(=O)[C@H](CCC(=O)O)NC(=O)[C@H](C)NC(=O)[C@H](CC(C)C)NC(=O)[C@H](CCCNC(=N)N)NC(=O)[C@H](CCC(N)=O)NC(=O)[C@@H](NC(=O)[C@H](C)NC(=O)[C@@H]1CSSC[C@H](NC(=O)[C@@H](N)CCCCNC(=O)CC[C@H](NC(=O)CCCCCCCCCCCCCCCCCCC(=O)O)C(=O)O)C(=O)N[C@@H](CC(N)=O)C(=O)N[C@@H]([C@@H](C)O)C(=O)N[C@@H](C)C(=O)N[C@@H]([C@@H](C)O)C(=O)N1)[C@@H](C)O)C(=O)N1CCC[C@H]1C(=O)N[C@@H](CO)C(=O)N[C@@H](CO)C(=O)N[C@H](C(=O)N[C@@H](CC(N)=O)C(=O)N[C@H](C(=O)NCC(=O)N1CCC[C@H]1C(=O)N[C@@H](CC(N)=O)C(=O)N[C@H](C(=O)N1CCC[C@H]1C(N)=O)[C@@H](C)O)C(C)C)[C@@H](C)O [Example 114] (H-K([γGlu-C20 diacid])CNTATCATQRLAEFLRHSSPNFGAIPSSTNVGPNTP-NH2; disulfide 2-7) | 0.9 | 0.105 nM | – | 0.09 nM | – | 0.214 nM | 0.5 | 1.1 | 0.117 nM | – | – | – | –
3 | CC[C@H](C)[C@H](NC(=O)[C@H](C)NC(=O)CNC(=O)[C@H](Cc1ccccc1)NC(=O)[C@H](CC(N)=O)NC(=O)[C@@H]1CCCN1C(=O)[C@H](CO)NC(=O)[C@H](CO)NC(=O)[C@H](Cc1c[nH]cn1)NC(=O)[C@H](CCCNC(=N)N)NC(=O)[C@H](CC(C)C)NC(=O)[C@H](Cc1ccccc1)NC(=O)[C@H](CCC(=O)O)NC(=O)[C@H](C)NC(=O)[C@H](CC(C)C)NC(=O)[C@H](CCCNC(=N)N)NC(=O)[C@H](CCC(N)=O)NC(=O)[C@@H](NC(=O)[C@H](C)NC(=O)[C@@H]1CSSC[C@H](NC(=O)[C@@H](N)CCCCNC(=O)CC[C@H](NC(=O)CCCCCCCCCCCCCCCCCCC(=O)O)C(=O)O)C(=O)N[C@@H](CC(N)=O)C(=O)N[C@@H]([C@@H](C)O)C(=O)N[C@@H](C)C(=O)N[C@@H]([C@@H](C)O)C(=O)N1)[C@@H](C)O)C(=O)N1CCC[C@H]1C(=O)N[C@@H](CO)C(=O)N[C@@H](CO)C(=O)N[C@H](C(=O)N[C@@H](CC(N)=O)C(=O)N[C@H](C(=O)NCC(=O)N[C@@H](CO)C(=O)N[C@@H](CC(N)=O)C(=O)N[C@H](C(=O)N1CCC[C@H]1C(N)=O)[C@@H](C)O)C(C)C)[C@@H](C)O [Example 12] (H-K([γGlu-C20 diacid])CNTATCATQRLAEFLRHSSPNFGAIPSSTNVGSNTP-NH2; disulfide 2-7) | 1.8 | 0.101 nM | – | 0.185 nM | – | 0.142 nM | 2.5 | 5.0 | 0.353 nM | – | – | – | –
4 | CC[C@H](C)[C@H](NC(=O)[C@H](C)NC(=O)CNC(=O)[C@H](Cc1ccccc1)NC(=O)[C@H](CC(N)=O)NC(=O)[C@@H]1CCCN1C(=O)[C@H](CO)NC(=O)[C@H](CO)NC(=O)[C@H](Cc1c[nH]cn1)NC(=O)[C@H](CCCNC(=N)N)NC(=O)[C@H](CC(C)C)NC(=O)[C@H](Cc1ccccc1)NC(=O)[C@H](Cc1c[nH]cn1)NC(=O)[C@H](C)NC(=O)[C@H](CC(C)C)NC(=O)[C@H](CCCNC(=N)N)NC(=O)[C@H](CCC(N)=O)NC(=O)[C@@H](NC(=O)[C@H](C)NC(=O)[C@@H]1CSSC[C@H](NC(=O)[C@@H](N)CCCCNC(=O)CC[C@H](NC(=O)CCCCCCCCCCCCCCCCCCC(=O)O)C(=O)O)C(=O)N[C@@H](CC(N)=O)C(=O)N[C@@H]([C@@H](C)O)C(=O)N[C@@H](C)C(=O)N[C@@H]([C@@H](C)O)C(=O)N1)[C@@H](C)O)C(=O)N1CCC[C@H]1C(=O)N[C@@H](CO)C(=O)N[C@@H](CO)C(=O)N[C@H](C(=O)N[C@@H](CC(N)=O)C(=O)N[C@H](C(=O)NCC(=O)N[C@@H](CO)C(=O)N[C@@H](Cc1c[nH]cn1)C(=O)N[C@H](C(=O)N[C@@H](Cc1ccc(O)cc1)C(N)=O)[C@@H](C)O)C(C)C)[C@@H](C)O [Example 66] (H-K([γGlu-C20 diacid])CNTATCATQRLAHFLRHSSPNFGAIPSSTNVGSHTY-NH2; disulfide 2-7; N-terminus assumed) | – | – | – | – | – | – | – | – | – | ≧200 μM | ≧200 μM | 131 μM | 52 μM
